# Measurements reported in patent publication US20130095059A1, “INHALED NO DONOR KMUPS DERIVATIVE PREVENTING ALLERGIC PULMONARY VASCULAR AND BRONCHIAL INFLAMMATION VIA SUPPRESSED CYTOKINES, INOS AND INFLAMMATORY CELL COUNTS IN ASTHMA MODEL” (priority 2007, published 2013).
# How the values were obtained:
# sGCα1 = assay: Ovalbumine model, sGCα1 expression; format: in vivo, BALB/c mice; conditions: 28-day experiment; nebulization
# Experimental: (§1) In this long-term experiment, 6-8 week old BALB/c female mice were sensitized on days 1 and 8 by intra-peritoneal injection (i.p.) of ovalbumine (10 μg) (Sigma-Aldrich, Schnelldorf, Germany) adsorbed to 2 mg aluminum hydroxide (AlumInject; Perbio, Erembodegem, Belgium). Mice were divided into three groups. In Group 1, a control group was only exposed to saline nebulization by aerosol. The other 2 groups were subjected to ovalbumine (1%) nebulization. Before each challenge with ovalbumine, mice were either exposed to saline nebulization (Group 2) or KMUP-1 nebulization (5 mM) for 30 min by aerosol (Group 3).
# (§2) The lung tissues were homogenized, washed with PBS and incubated in lysis buffer in addition to a protease inhibitor cocktail (Sigma, St. Louis, Mo.) to obtain extracts of lung proteins. A Western blot analysis was performed as described previously (Wu B N, et al., 2006). The samples were loaded to 10% SDS-PAGE gels and were separated at 120 V for 90 min. The blots were incubated with anti-eNOS antibody diluted at a ratio of 1:500, anti-sGCα1 antibody diluted at a ratio of 1:2000, anti-PKG antibody diluted at a ratio of 1:500, anti-VCAM-1 antibody diluted at a ratio of 1:500, anti-ICAM-1 antibody diluted at a ratio of 1:500, and anti-MMP-9 antibody diluted at a ratio of 1:600 overnight at 4° C. […]
# PKG = assay: Ovalbumine model, PKG expression; format: in vivo, BALB/c mice; conditions: 28-day experiment; nebulization
# Experimental: as §1, §2
# [1] = MCT-induced chronic PAH, mean pulmonary arterial pressure; format: in vivo, Wistar rats; conditions: 5 mg/kg/day p.o. and 1 mg/kg/day i.p. for 21 days
# Experimental: The experiments were performed in adult male Wistar rats (300 to 350 g) in accordance with institutional guidelines after approval by the ethical review committee. PAH development and pulmonary expression of 5-HTT were examined in rats after 60 mg/kg single injection (i.p.) of monocrotaline (MCT). To assess the potential preventive effect of KMUP-1 on MCT-induced PAH and associated proliferation, we assigned rats at random to 2 groups of 8 animals which received KMUP-1 at 5 mg/kg/day p.o or 1 mg/kg/day i.p. All treatments were given once a day for 3 weeks after a single MCT injection (60 mg/kg i.p.) (Abe et al., 2004). On day 21, rats were anesthetized and pulmonary artery blood pressure (MPAP) was recorded as previously described. Lung tissues were dissected for Western blotting and immunohistochemistry.
# 5-HT2C receptor = target: T1, 5-HT2C receptor (Homo sapiens, UniProt P28335); assay: Displacement of radioligand binding, 5-HT2C; conditions: [^3H]-mesulergine, human recombinant CHO-K1 cells
# T1 construct: full length clones of 5-HT2A, 5-HT2B and 5-HT2C receptor were prepared from CHO-K1 cells; expressed in transfected cells; host or cells: CHO-K1
# T1 sequence (P28335 33-458): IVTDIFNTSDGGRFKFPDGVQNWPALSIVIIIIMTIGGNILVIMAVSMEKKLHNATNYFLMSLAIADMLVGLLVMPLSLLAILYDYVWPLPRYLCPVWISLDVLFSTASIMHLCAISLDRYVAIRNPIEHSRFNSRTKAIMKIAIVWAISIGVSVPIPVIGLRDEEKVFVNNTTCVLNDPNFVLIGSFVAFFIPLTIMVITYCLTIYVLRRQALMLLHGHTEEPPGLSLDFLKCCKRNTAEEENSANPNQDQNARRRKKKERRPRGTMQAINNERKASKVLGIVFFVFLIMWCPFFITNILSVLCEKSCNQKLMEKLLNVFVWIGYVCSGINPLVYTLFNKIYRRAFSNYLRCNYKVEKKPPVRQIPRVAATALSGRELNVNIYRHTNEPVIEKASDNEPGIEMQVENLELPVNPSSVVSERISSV
# Experimental: Displacement of Radioligand Binding Assay
# As described previously, full length clones of 5-HT2A, 5-HT2B and 5-HT2C receptor were prepared from CHO-K1 cells. […] IC50 represents the concentration of competing ligand which displaces 50% of the specific binding of the radioligand. Ki values for competition curves were calculated using the Cheng-Prusoff equation (Cheng, 2001).
# IL-5 = assay: Ovalbumine model, plasma IL-5 (ELISA); format: in vivo, mice; conditions: mice sensitized and challenged by ovalbumine
# Experimental: as §1
# eNOS [2] = assay: Ovalbumine model, eNOS immunostaining in lung sections; set-up: species or system BALB/c mice; conditions: mouse, in vivo
# Experimental: as §1
# Immunohistochemical analysis of eNOS enhancement by KMUP-1 was performed as follows. The lungs were perfused with saline followed by 10% formalin and then placed in 10% formalin for paraffin embedding. The lung tissues were cut into […] sections onto slides, dewaxed in 100% xylene, and then re-hydrated in graded alcohol solutions. Throughout the procedures, slides were washed as appropriate in PBS. Antigen retrieval was performed by microwave treatment for eNOS immunostaining. Sections were treated with 3% H2O2 (10 min) to inhibit endogenous peroxidases and incubated with normal serum (60 min) to reduce nonspecific binding of secondary antibodies. Sections were then incubated at 4° C. overnight with eNOS antibodies. […]
# eNOS [3] = assay: Expression of eNOS in HPAEC; format: cell-based, human
# Experimental: HPAEC purchased from ATCC were maintained in humidified incubator containing 5% CO2 at 37° C. HPAEC were cultured in F-12 supplemented with 10% fetal bovine serum. The culture medium was changed every 3 days and cells were subcultured until confluence. HPAEC were harvested with a solution of trypsin-EDTA (GIBCO BRL, NY, USA) while in a logarithmic phase of growth. HPAEC were used between passages 4-8.
# To measure the expression of eNOS and 5-HT2B receptor in HPAEC after incubation with KMUP-1 (1-100 μM) for 24 h, whole lysates were collected for Western blotting assay. The relative density was determined using NIH imaging software.
# inflammatory cells = assay: Ovalbumine model, histology of peri-vascular and peri-bronchiolar regions; format: in vivo, BALB/c mice; conditions: ovalbumine-exposed mice; nebulization 5 mM 30 min
# Experimental: as §1
# Sections of fixed embedded tissues were cut at […], placed on glass slides, deparaffinized and stained sequentially with hematoxylin 2 and eosin-Y (MUTO PURE CHEMICALS CO., LTD., Tokyo, Japan) (Tournoy K G, et al., 2000). To confirm the relationship between vascular inflammation/remodeling and expression of proteins, lung tissue sections from ovalbumine experiments were prepared and stained with hematoxylin-eosin as previously described (Hongo M, et al., 2000). Microphotography analysis of blood vessels and bronchioles, focusing on peri-bronchial and peri-vascular region in the lung sections, was performed using a color digital camera mounted on a computer-interfaced light microscope (Eclipse TE2000-S microscope, Nikon, Tokyo, Japan).
smiles,measurement,setting,value
"Cn1c(=O)c2c(ncn2CCN2CCN(c3ccccc3Cl)CC2)n(C)c1=O [KMUP-1, 7-[2-[4-(2-chlorophenyl)piperazinyl]ethyl]-1,3-dimethylxanthine]",decreased sGCα1 expression by ovalbumine sensitization,sGCα1,significantly reduced
same,decreased PKG expression by ovalbumine sensitization,PKG,significantly reduced
same,MCT-induced increases in mean pulmonary arterial pressure (MPAP),[1],significantly reduced
same,IC50,5-HT2C receptor,408 nM
same,Ki,5-HT2C receptor; Cheng-Prusoff,214 nM
same,IL-5 levels in the plasma,IL-5,inhibited
same,ovalbumine-decreased vascular eNOS-immunostaining in lung sections,eNOS [2],prevented this decrease
same,expression of eNOS compared to 5-HT treatment alone,"eNOS [3]; 10 μM, 24 h before adding 5-HT",raised
same,eNOS expression in cultured HPAEC,"eNOS [3]; 1-100 μM, 24 h",dose-dependently increased
same,inflammatory cells in the peri-vascular and peri-bronchiolar regions,inflammatory cells,marked reductions
